Assay results taken from ChEMBL document CHEMBL1201862, “PubChem BioAssay data set” (2004).
The source made the active and inactive calls.

Key:
Fatty acid synthase [1] = target: T1, Fatty acid synthase (Homo sapiens, UniProt P49327); assay: FAS thioesterase domain inhibitors, dose response, biochemical, kinetic fluorescence intensity (AID 624326); type: functional;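 further: rate of fluorescence rise from hydrolysis of a fluorogenic O-methyl fluorescein ester substrate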
Fatty acid synthase [2] = target: T1, Fatty acid synthase; assay: FAS thioesterase domain inhibitors, dose response, biochemical, endpoint fluorescence intensity, uHTS hits (AID 624327); type: functional;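 further: fluorescence from hydrolysis of an O-methyl fluorescein acyl ester substrate by the enzyme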
[3] = target: T2, Short transient receptor potential channel 4 (Mus musculus, UniProt Q9QUQ5); assay: mouse TRPC4 channel activators, dose response, cell-based, HEK293 TRPC4/mu-opioid, Fluo-4 calcium (AID 434937); type: functional
T2 sequence (Q9QUQ5 whole entry): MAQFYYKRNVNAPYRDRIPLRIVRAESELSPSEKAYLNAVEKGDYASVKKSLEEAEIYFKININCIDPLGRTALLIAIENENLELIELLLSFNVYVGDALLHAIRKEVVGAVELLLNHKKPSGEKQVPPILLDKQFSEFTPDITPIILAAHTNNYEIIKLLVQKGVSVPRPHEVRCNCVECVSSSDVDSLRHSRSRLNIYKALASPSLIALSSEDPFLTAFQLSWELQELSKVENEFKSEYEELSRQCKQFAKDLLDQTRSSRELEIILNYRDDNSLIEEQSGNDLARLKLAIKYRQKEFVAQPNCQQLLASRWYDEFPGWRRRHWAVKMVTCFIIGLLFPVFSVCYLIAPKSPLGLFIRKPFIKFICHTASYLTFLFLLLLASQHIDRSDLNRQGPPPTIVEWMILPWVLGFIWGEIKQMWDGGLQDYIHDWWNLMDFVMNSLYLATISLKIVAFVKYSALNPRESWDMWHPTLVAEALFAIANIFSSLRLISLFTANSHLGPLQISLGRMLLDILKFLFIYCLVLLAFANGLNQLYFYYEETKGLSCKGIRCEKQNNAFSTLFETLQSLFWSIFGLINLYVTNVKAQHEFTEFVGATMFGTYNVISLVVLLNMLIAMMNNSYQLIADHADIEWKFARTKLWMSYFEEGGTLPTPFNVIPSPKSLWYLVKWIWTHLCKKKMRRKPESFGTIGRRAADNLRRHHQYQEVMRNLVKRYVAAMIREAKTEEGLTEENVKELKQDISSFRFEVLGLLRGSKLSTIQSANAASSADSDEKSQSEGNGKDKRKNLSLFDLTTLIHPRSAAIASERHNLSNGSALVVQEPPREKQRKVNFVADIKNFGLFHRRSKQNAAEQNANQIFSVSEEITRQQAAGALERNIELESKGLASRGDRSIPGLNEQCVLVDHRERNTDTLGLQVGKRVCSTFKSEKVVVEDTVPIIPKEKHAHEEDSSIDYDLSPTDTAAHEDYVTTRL

[4] = target: T3, Zinc finger protein mex-5 (Caenorhabditis elegans, UniProt Q9XUB2); assay: MEX-5/TCR-2 RNA interaction inhibitors, dose response, biochemical, C. elegans, fluorescence polarization (AID 1960)
T3 sequence (Q9XUB2 whole entry): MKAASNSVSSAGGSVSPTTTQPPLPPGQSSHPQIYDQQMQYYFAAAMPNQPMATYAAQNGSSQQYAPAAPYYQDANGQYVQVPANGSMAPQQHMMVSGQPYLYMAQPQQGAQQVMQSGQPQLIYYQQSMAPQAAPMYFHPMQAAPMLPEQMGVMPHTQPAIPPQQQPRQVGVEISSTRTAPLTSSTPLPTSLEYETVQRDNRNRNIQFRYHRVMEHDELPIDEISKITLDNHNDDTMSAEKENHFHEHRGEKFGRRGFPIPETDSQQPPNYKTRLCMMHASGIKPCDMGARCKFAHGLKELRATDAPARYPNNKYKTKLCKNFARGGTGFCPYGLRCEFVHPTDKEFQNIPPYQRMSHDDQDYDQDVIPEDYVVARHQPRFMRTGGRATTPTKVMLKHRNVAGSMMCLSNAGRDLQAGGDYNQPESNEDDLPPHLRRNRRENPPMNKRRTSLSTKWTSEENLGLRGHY

Genome polyprotein = Genome polyprotein (dengue virus type 2, UniProt P29990); assay: Dengue-2 NS5 methyltransferase inhibitors, primary screen, biochemical, confirmation dose response (AID 588689); type: functional
Sequence of Genome polyprotein (P29990 2492-3391 limits assumed): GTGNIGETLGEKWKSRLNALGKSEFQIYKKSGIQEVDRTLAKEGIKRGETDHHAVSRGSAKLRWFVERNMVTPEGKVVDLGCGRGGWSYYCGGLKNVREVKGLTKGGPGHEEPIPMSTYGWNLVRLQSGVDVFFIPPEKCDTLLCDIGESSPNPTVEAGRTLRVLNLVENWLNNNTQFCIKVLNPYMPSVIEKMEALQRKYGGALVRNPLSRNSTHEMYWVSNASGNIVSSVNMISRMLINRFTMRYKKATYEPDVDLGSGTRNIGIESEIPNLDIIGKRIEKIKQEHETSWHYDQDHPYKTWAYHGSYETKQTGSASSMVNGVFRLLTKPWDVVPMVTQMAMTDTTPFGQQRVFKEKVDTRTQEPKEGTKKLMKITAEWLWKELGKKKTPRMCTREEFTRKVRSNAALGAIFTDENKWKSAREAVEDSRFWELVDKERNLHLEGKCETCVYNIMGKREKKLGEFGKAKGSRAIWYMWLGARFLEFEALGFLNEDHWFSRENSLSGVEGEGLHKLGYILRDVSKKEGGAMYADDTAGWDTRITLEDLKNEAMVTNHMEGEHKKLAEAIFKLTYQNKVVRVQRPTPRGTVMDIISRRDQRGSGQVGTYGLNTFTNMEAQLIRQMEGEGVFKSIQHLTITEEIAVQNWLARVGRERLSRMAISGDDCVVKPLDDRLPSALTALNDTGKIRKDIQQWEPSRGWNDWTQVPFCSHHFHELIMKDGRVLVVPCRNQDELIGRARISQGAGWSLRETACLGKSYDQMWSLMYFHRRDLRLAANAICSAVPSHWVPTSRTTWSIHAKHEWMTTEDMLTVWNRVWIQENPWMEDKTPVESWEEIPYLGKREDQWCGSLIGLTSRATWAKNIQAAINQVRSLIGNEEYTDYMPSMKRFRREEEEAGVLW

[5] = target: T4, RNA-binding protein pos-1 (Caenorhabditis elegans, UniProt G5EF15); assay: inhibitors of POS-1/mex-3 RNA binding, dose response, biochemical, fluorescence polarization (AID 1964);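 further: purified POS-1 fused to maltose binding protein made in E. coli; potency of compounds blocking POS-1 binding to fluorescent RNA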
T4 sequence (G5EF15 whole entry): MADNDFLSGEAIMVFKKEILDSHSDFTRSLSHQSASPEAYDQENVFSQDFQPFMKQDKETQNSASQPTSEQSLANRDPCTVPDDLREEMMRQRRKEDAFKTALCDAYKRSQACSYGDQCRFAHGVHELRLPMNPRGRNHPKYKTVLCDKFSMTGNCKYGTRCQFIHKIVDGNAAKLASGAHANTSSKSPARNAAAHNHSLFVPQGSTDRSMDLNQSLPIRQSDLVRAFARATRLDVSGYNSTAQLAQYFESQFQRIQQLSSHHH

Phosphomannomutase 2 = target: T5, Phosphomannomutase 2 (Homo sapiens, UniProt O15305); assay: Counter screen SAR assay for PMM2 inhibitors via a fluorescence intensity assay. [Related pubchem assays (depositor defined):AID1545, AID1574]
T5 sequence (O15305 whole entry): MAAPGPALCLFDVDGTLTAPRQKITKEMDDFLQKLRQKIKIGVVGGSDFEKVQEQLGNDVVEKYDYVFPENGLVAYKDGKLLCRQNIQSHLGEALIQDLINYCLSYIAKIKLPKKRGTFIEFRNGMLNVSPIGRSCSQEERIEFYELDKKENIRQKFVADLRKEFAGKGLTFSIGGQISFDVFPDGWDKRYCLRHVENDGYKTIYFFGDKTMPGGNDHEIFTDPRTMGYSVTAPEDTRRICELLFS

[6] = target: T6, Mannose-6-phosphate isomerase (Homo sapiens, UniProt P34949); assay: PMI enzyme inhibitors, confirmation, biochemical, fluorescence intensity (AID 1535)
T6 sequence (P34949 whole entry): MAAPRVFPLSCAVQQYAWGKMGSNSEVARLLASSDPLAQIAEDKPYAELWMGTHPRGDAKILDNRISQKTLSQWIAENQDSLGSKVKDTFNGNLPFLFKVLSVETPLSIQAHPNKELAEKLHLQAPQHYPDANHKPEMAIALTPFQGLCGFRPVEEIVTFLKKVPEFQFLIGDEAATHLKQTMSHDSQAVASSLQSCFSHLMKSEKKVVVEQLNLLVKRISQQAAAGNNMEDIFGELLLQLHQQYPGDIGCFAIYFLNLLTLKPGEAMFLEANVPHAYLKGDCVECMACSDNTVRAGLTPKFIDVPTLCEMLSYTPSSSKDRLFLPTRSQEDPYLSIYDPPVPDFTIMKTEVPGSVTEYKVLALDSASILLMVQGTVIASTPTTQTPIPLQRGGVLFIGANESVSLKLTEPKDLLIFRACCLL

[7] = target: T7, Adenosylmethionine-8-amino-7-oxononanoate aminotransferase (Mycobacterium tuberculosis, UniProt P9WQ81); assay: Mycobacterium tuberculosis BioA enzyme inhibitor Measured in Biochemical System Using Plate Reader - 2163-02_Inhibitor_Dose_CherryPick_Activity.; type: functional, Mycobacterium tuberculosis UT205
T7 sequence (P9WQ81 whole entry): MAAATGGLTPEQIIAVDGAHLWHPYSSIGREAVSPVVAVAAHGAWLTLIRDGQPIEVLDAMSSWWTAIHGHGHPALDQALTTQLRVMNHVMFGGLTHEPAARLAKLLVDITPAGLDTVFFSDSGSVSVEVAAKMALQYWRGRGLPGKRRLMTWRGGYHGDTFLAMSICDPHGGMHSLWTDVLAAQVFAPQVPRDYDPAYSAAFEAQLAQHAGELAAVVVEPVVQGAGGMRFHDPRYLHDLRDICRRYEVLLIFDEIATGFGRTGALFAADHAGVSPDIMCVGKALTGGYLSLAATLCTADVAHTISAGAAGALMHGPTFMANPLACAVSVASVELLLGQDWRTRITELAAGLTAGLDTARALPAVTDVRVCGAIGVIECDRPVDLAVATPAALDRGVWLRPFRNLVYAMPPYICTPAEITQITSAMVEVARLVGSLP

[8] = intracellular Trypanosoma cruzi inhibitors in host cells – cell-based, plate reader, cherry-pick samples, set 3, dose response (AID 651818); type: functional;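 further: compounds incubated with infected cells for about four days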
[9] = P. falciparum Dd2 growth inhibitors, dose response, SYBR Green, cherry-picked samples (AID 1159567); type: functional, cell-based

T1 sequence (P49327 whole entry, the tested form may be a part): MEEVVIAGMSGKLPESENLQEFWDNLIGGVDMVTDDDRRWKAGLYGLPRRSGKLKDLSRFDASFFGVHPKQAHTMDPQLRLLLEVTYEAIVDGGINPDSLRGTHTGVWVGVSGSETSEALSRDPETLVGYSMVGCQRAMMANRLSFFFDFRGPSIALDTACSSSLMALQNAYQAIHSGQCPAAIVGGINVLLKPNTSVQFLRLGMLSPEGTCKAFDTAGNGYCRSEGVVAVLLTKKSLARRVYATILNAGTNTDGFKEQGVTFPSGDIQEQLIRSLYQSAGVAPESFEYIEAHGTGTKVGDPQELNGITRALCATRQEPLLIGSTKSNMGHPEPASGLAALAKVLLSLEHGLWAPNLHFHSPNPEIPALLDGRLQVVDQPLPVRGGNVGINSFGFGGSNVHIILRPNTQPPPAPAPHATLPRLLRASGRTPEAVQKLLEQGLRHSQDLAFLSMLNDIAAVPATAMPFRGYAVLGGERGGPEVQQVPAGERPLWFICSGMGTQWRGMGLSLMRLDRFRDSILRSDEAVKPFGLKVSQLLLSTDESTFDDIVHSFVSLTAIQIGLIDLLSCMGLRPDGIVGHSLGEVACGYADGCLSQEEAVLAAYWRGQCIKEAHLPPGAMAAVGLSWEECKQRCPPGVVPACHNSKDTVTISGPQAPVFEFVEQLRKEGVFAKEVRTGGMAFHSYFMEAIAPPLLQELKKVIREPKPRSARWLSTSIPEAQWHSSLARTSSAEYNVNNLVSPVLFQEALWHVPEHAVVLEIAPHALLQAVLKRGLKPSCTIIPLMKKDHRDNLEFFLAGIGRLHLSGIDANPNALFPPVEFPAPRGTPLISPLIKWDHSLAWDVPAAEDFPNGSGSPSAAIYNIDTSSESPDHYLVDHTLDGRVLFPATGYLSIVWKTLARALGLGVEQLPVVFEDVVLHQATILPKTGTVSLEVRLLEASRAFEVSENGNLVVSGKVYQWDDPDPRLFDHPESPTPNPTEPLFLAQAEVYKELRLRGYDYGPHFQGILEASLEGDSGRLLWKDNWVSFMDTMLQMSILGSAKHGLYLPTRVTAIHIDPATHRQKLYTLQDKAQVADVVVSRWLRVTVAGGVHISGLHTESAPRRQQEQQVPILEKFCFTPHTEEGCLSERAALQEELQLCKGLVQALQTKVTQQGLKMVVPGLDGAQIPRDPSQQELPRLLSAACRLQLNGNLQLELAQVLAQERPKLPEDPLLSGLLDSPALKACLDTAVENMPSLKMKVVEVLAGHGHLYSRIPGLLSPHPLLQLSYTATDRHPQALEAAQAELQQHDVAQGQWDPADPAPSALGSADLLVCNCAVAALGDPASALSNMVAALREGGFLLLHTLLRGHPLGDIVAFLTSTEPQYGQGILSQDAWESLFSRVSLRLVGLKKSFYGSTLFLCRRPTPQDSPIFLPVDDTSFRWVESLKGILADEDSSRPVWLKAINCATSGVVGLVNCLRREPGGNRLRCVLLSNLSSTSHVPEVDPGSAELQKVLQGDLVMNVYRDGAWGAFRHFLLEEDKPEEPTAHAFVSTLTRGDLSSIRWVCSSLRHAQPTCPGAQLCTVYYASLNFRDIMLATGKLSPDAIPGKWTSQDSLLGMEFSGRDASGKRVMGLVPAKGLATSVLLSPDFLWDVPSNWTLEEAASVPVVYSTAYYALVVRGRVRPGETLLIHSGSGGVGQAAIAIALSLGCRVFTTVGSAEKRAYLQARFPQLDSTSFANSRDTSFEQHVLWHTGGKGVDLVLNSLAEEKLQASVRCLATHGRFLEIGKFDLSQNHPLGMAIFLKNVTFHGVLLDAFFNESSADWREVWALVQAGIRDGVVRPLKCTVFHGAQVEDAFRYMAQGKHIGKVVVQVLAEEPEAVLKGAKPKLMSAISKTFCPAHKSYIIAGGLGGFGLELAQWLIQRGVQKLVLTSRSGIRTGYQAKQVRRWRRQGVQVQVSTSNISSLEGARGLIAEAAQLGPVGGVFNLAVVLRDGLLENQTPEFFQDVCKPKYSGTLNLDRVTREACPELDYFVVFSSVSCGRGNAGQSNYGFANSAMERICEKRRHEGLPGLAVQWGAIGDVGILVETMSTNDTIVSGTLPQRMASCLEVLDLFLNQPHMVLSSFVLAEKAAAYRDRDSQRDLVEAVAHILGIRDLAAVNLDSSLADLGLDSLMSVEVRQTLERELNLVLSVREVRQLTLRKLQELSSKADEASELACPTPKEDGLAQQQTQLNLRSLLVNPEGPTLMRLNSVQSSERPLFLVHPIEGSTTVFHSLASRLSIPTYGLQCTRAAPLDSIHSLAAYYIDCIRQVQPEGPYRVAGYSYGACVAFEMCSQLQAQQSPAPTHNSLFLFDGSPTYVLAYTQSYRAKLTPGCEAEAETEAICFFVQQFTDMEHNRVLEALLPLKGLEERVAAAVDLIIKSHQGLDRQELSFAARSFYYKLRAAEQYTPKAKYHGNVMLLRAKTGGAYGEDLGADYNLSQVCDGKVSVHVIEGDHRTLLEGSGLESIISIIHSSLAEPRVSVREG

## Cc1ccccc1Cn1c(C)nc2ccc([N+](=O)[O-])cc2c1=O
Fatty acid synthase [1]
  IC50: 7.08 µM (active)
Fatty acid synthase [2]
  IC50: 9.84 µM (active)

## Cc1csc2c(N3CCN(C(S)=Nc4ccc(C(F)(F)F)cc4)CC3)ncnc12
[3]
  EC50: 1.68 µM (active)

## CCC(=O)OC1(C)C(=O)C=C2C=C(C3CC3)OC=C2C1=O (stereo unspecified)
[4]
  EC50: 30.4 µM (active)
Genome polyprotein
  IC50: > 100 µM (active)
[5]
  EC50: > 300 µM (not active)

## O=[N+]([O-])c1ccc(/N=c2\ssnc2Cl)c2ccccc12
Phosphomannomutase 2
  IC50: > 100 µM (inactive)
[6]
  IC50: > 100 µM (inactive)

## COc1ccc([N+](=O)[O-])cc1C(=O)NC1CCN(Cc2ccccc2)CC1
[7]
  AC50: 2.3 µM (active)

## CN(C)c1ccc(/N=c2\ssnc2Cl)cc1
Phosphomannomutase 2
  IC50: > 100 µM (inactive)
[6]
  IC50: 12.4 µM (active)

## Cc1ccc2nc(-n3sc4ccccc4c3=O)sc2c1
Phosphomannomutase 2
  IC50: > 100 µM (inactive)
[6]
  IC50: > 50 µM (inactive)

## C[C@@H]1CCCCO[C@@H](CN(C)CC2CCCCC2)[C@@H](C)CN([C@H](C)CO)C(=O)c2cc(NS(=O)(=O)c3ccc(Cl)cc3)ccc2O1
[8]
  AC50: 2.18 µM (active)

## C[C@@H]1CN([C@@H](C)CO)C(=O)Cc2cc(NC(=O)Cn3cnnn3)ccc2O[C@H]1CN(C)Cc1ccc2c(c1)OCO2
[7]
  AC50: 10.5 µM (active)

## COCCNC(=O)C[C@H]1CC[C@@H]2[C@H](COc3ccc(NC(=O)Nc4cccc(F)c4)cc3C(=O)N2C)O1
[7]
  AC50: 6.86 µM (active)

## C[C@H](CO)N1C[C@H](C)[C@@H](CN(C)Cc2ccc(-c3ccccc3)cc2)Oc2c(NC(=O)c3ccc(-c4nccs4)cc3)cccc2C1=O
[9]
  AC50: 5.28 µM (active)
[8]
  AC50: 3.54 µM (active)

## C[C@H]1CN([C@@H](C)CO)C(=O)Cc2cc(NC(=O)Nc3ccc(C(F)(F)F)cc3)ccc2O[C@@H]1CN(C)Cc1ccc(C(F)(F)F)cc1
[8]
  AC50: 5.04 µM (active)

## C/C=C/c1ccc2c(c1)O[C@@H](CN(C)C(=O)Nc1ccc(F)cc1)[C@@H](C)CN([C@@H](C)CO)S2(=O)=O
[7]
  AC50: 4.65 µM (active)

## C[C@H](CO)N1C[C@H](C)[C@H](CN(C)Cc2ccccc2)Oc2ccc(NC(=O)Nc3ccc(C(F)(F)F)cc3)cc2C1=O
[8]
  AC50: 6.57 µM (active)
